For 21 molecules, CC50, IC50 and EC50 results are on record in patent publication US20240199647A1, “ANTI-VIRAL COMPOUNDS” (Aligos Therapeutics, Inc., priority 2022, published 2024).

The structures appear in SMILES notation. pEC50, pIC50: −log10 of the molar value. Like-named read-outs stand apart in the source and are kept apart here.

The nature of data set [1]: Cytotoxicity in HeLa cells without addition of OC43 virus (in parallel). Conditions: human, HeLa cells, without OC43 virus.
Data set [2] addresses SARS-Cov-2 3CLpro (Severe acute respiratory syndrome coronavirus 2, UniProt P0DTD1). The data set is described as follows: biochemical. The following applies: Table A, class symbols, read-out: SARS-Cov-2 (IC50).
Data set [3] concerns human beta-coronavirus OC43. The data set is described as follows: OC43 Coronavirus Assay in HeLa cells (antiviral, cytopathic effect, cell-titer-glo). The data set is classed as cell-based. The following applies: Betacoronavirus 1, OC43, HeLa, Table B, OC43 coronavirus in HeLa cells, read-out: EC50. Background: Damage to the host cells serves as the signal in cytopathic effect assays.

Data set [4] in a line: in vitro. Conditions: human.
The test system of data set [5] is SARS-CoV-2 B.1.1.7 lineage. The data set is described as follows: microbe, parasite or virus in culture. In kind it is cell-based. The following applies: Severe acute respiratory syndrome coronavirus 2, Table C, SARS-CoV-2 B.1.1.7 in A549-dual_ACE2_TMPRSS2 cells, read-out: A549-dual_ACE2_TMPRSS2 (EC50).

Broadly, the pIC50 is the IC50 on a negative log10 scale, so that one unit is a factor of ten. A word on the pEC50: it is the EC50 on a negative log10 scale, so that one unit is a factor of ten. `CC(C)C[C@@H](C(=O)N1C[C@@]2(C[C@H]1C#N)N=C(c1ccccc1)NC2=O)N(C)C(=O)[C@H](C)NC(=O)C(F)(F)F` [Compound 12, (2S)—N-[(2S)-1-[(5R,8S)-8-cyano-4-oxo-2-phenyl-1,3,7-triazaspiro[4.4]non-1-en-7-yl]-4-methyl-1-oxopentan-2-yl]-N-methyl-2-(2,2,2-trifluoroacetamido)propanamide]: in data set [1], the CC50 at 6 days is above 10 µM. Also, the negative logarithm of the IC50 (pIC50) in data set [2] is 6.70 to 7.70. In addition, the pEC50 in data set [3] (class symbols) and in data set [5] (class symbols) was 5.00 to 6.00 throughout. This molecule also showed a CC50 in data set [4] above 1000 nM.
`COC(=O)N[C@@H](C)C(=O)N(C)[C@@H](CC1CC1)C(=O)N1C[C@@]2(C[C@H]1C#N)Oc1cccnc1NC2=O` [Compound 213] gave a CC50 at 6 days in data set [1] above 10 µM. Besides, the pIC50 in data set [2] is above 7.70. Moreover, the results for the negative logarithm of the EC50 (pEC50) in data set [3] (class symbols) and in data set [5] (class symbols) were above 7.00 and 6.00 to 7.00, respectively. The molecule also had a CC50 in data set [4] above 1000 nM.
For `COc1ccc(Cl)c2[nH]c(C(=O)N(C)[C@@H](CC3CC3)C(=O)N3C[C@@]4(C[C@H]3C#N)Oc3cc(F)cc(F)c3NC4=O)cc12` [Compound 135], in that order: above 10 µM, above 7.70, above 7.00, 6.00 to 7.00 and above 1000 nM.
In the same order, the values of `COC1CNC(=O)[C@]12C[C@@H](C#N)N(C(=O)[C@H](CC1CC1)N(C)C(=O)[C@H](CC1CC1)NC(=O)C(F)(F)F)C2` (stereo partly drawn) [Compound 225, (2S)—N-((2S)-1-((3S,5S)-3-cyano-9-methoxy-6-oxo-2,7-diazaspiro[4.4]nonan-2-yl)-3-cyclopropyl-1-oxopropan-2-yl)-3-cyclopropyl-N-methyl-2-(2,2,2-trifluoroacetamido)propanamide] are above 10 µM, 6.70 to 7.70, 6.00 to 7.00, 6.00 to 7.00 and above 1000 nM.
The molecule `CC(C)C[C@@H](C(=O)N1C[C@]2(C[C@H]1C#N)C(=O)Nc1ccnn12)N(C)C(=O)[C@H](C)NC(=O)C(F)(F)F` [Example 45, (2S)—N-[(2S)-1-[(3R,5'S)-5′-cyano-2-oxo-1H-spiro[pyrazolo[1,5-a]imidazole-3,3′-pyrrolidin]-1′-yl]-4-methyl-1-oxopentan-2-yl]-N-methyl-2-(2,2,2-trifluoroacetamido)propanamide] gave a CC50 at 6 days in data set [1] above 10 µM. Further, in data set [2], the pIC50 is 6.70 to 7.70. The values for the negative-log EC50 (pEC50) in data set [3] (class symbols) and in data set [5] (cells given as a bound) were 6.00 to 7.00 and below 6.00, respectively. For the same molecule, the CC50 in data set [4] is above 1000 nM.
In the case of `CN(C(=O)[C@H](CC1CC1)NS(=O)(=O)C1CC1)[C@@H](CC1CC1)C(=O)N1C[C@@]2(C[C@H]1C#N)Oc1cccnc1NC2=O` [Compound 178], the CC50 at 6 days in data set [1] is above 10 µM. Further, in data set [2], the pIC50 is above 7.70. For the same molecule, the negative-log EC50 (pEC50) in data set [3] (class symbols) was above 7.00; in data set [5] (class symbols) it was 6.00 to 7.00. This molecule also yielded a CC50 in data set [4] above 1000 nM.
Take `CC(C)C[C@@H](C(=O)N1C[C@@]2(C[C@H]1C#N)Oc1ccncc1NC2=O)N(C)C(=O)c1cc2c(F)cc(F)cc2[nH]1` [Example 3, N—((S)-1-((2R,5'S)-5′-cyano-3-oxo-3,4-dihydrospiro[pyrido[4,3-b][1,4]oxazine-2,3′-pyrrolidin]-1′-yl)-4-methyl-1-oxopentan-2-yl)-4,6-difluoro-N-methyl-1H-indole-2-carboxamide]: the CC50 at 6 days in data set [1] was above 10 µM. The pIC50 in data set [2] was 6.70 to 7.70. The results for the pEC50 in data set [3] (cells given as a bound) and in data set [5] (class symbols) were below 6.00 and 5.00 to 6.00, respectively. For the same molecule, the CC50 in data set [4] was above 1000 nM.
`CC(C)C[C@@H](C(=O)N1C[C@]2(C[C@H]1C#N)C(=O)Nc1cc(-c3ccccc3)nn12)N(C)C(=O)[C@H](C)NC(=O)C(F)(F)F` [Compound 25, (S)—N—((S)-1-((3R,5'S)-5′-cyano-2-oxo-6-phenyl-1,2-dihydrospiro[imidazo[1,2-b]pyrazole-3,3′-pyrrolidin]-1′-yl)-4-methyl-1-oxopentan-2-yl)-N-methyl-2-(2,2,2-trifluoroacetamido)propanamide] yielded a CC50 at 6 days in data set [1] above 10 µM. In data set [2], the pIC50 is 6.70 to 7.70. Also, the pEC50 in data set [3] (class symbols) and in data set [5] (class symbols) was 6.00 to 7.00 throughout. The molecule further gave a CC50 in data set [4] above 1000 nM.
Take `CN(C(=O)[C@H](COC(C)(C)C)NC(=O)C(F)(F)F)[C@@H](CC1CC1)C(=O)N1C[C@@]2(C[C@H]1C#N)Oc1cc(F)cc(F)c1NC2=O` [Compound 158]: the CC50 at 6 days in data set [1] is above 10 µM. Moreover, the pIC50 in data set [2] was above 7.70. Besides, the negative-log EC50 (pEC50) in data set [3] (class symbols) and in data set [5] (class symbols) was above 7.00 in each case. This molecule returned a CC50 in data set [4] above 1000 nM.
As to `CN(C(=O)[C@H](CC1CC1)NC(=O)C(F)(F)F)[C@@H](CC1CC1)C(=O)N1C[C@@]2(C[C@H]1C#N)Oc1ccccc1NC2=O` [Compound 182], the CC50 at 6 days in data set [1] was above 10 µM. In data set [2], the pIC50 was above 7.70. Besides, the pEC50 in data set [3] (class symbols) and in data set [5] (class symbols) was above 7.00 each time. For the same molecule, in data set [4], the CC50 was above 1000 nM.
As for `C[C@H](NC(=O)C(F)(F)F)C(=O)N(C)[C@@H](CC(C)(C)C)C(=O)N1C[C@@]2(C[C@H]1C#N)Oc1cccnc1NC2=O` [Compound 166], the CC50 at 6 days in data set [1] is above 10 µM. The negative logarithm of the IC50 (pIC50) in data set [2] is above 7.70. The negative-log EC50 (pEC50) in data set [3] (class symbols) was above 7.00; in data set [5] (class symbols), 6.00 to 7.00. Besides, in data set [4], the CC50 is above 1000 nM.
Molecule `CN(C(=O)[C@H](CC1CC1)NC(=O)C(F)(F)F)C(CC1CC1)C(=O)N1C[C@@]2(C[C@H]1C#N)Oc1cc(S(C)(=O)=O)ccc1NC2=O` (stereo in doubt) [Compound 110, (S)—N—((S)-1-((2R,5'S)-5′-cyano-7-(methylsulfonyl)-3-oxo-3,4-dihydrospiro[benzo[b][1,4]oxazine-2,3′-pyrrolidin]-1′-yl)-3-cyclopropyl-1-oxopropan-2-yl)-3-cyclopropyl-N-methyl-2-(2,2,2-trifluoroacetamido)propanamide] returned a CC50 at 6 days in data set [1] above 10 µM. Also, in data set [2], the pIC50 was above 7.70. Moreover, the pEC50 in data set [3] (class symbols) is above 7.00; in data set [5] (cells given as a bound), below 6.00. In addition, the CC50 in data set [4] was above 1000 nM.
For `CN(C(=O)[C@H](CC1CC1)NS(=O)(=O)c1ccc(F)cc1)[C@@H](CC1CC1)C(=O)N1C[C@@]2(C[C@H]1C#N)Oc1cccnc1NC2=O` [Compound 197], the CC50 at 6 days in data set [1] was above 10 µM. Further, the negative logarithm of the IC50 (pIC50) in data set [2] was above 7.70. Besides, the negative-log EC50 (pEC50) in data set [3] (class symbols) was above 7.00; in data set [5] (class symbols), 6.00 to 7.00. Besides, the CC50 in data set [4] is above 1000 nM.
In the same order, the values of `CN(C(=O)[C@H](CC1CC1)NS(=O)(=O)C1CC1)[C@@H](CC1CC1)C(=O)N1C[C@@]2(C[C@H]1C#N)Oc1ccccc1CNC2=O` [Compound 175] are above 10 µM, above 7.70, above 7.00, 6.00 to 7.00 and above 1000 nM.
In the same order, the values of `CN(C(=O)[C@H](CC1CCC1)NC(=O)C(F)(F)F)[C@@H](CC1CC1)C(=O)N1C[C@@]2(C[C@H]1C#N)Oc1cc(F)cc(F)c1NC2=O` [Compound 87] are above 10 µM, above 7.70, 6.00 to 7.00, above 7.00 and above 1000 nM.
In the same order, the values of `CN(C(=O)[C@H](CC1CCC1)NC(=O)C(F)(F)F)[C@@H](CC1CC1)C(=O)N1C[C@@]2(C[C@H]1C#N)Oc1ncccc1NC2=O` [Compound 203] are above 10 µM, above 7.70, above 7.00, above 7.00 and above 1000 nM.
`CN(C(=O)[C@H](CC(C)(C)C)NC(=O)C(F)(F)F)[C@@H](CC1CC1)C(=O)N1C[C@@]2(C[C@H]1C#N)Oc1ncccc1NC2=O` [Compound 204]: the CC50 at 6 days in data set [1] was above 10 µM. In addition, the pIC50 in data set [2] is above 7.70. Moreover, the pEC50 in data set [3] (class symbols) and in data set [5] (class symbols) was above 7.00 in each case. The CC50 in data set [4] was above 1000 nM.
In turn, `CN(C(=O)[C@H](CC1CC1)NC(=O)C(F)(F)F)[C@@H](CC1CC1)C(=O)N1C[C@@]2(C[C@H]1C#N)Oc1c(cccc1-c1ccccc1)NC2=O` [Compound 125, (S)—N—((S)-1-((2R,5'S)-5′-cyano-3-oxo-8-phenyl-3,4-dihydrospiro[benzo[b][1,4]oxazine-2,3′-pyrrolidin]-1′-yl)-3-cyclopropyl-1-oxopropan-2-yl)-3-cyclopropyl-N-methyl-2-(2,2,2-trifluoroacetamido)propanamide] had a CC50 at 6 days in data set [1] above 10 µM. Besides, the negative-log IC50 (pIC50) in data set [2] was above 7.70. The pEC50 in data set [3] (class symbols) and in data set [5] (class symbols) was above 7.00 each time. The molecule also displayed a CC50 in data set [4] above 1000 nM.
Regarding `CN1CCC[C@H]1C(=O)N(C)[C@@H](CC1CC1)C(=O)N1C[C@@]2(C[C@H]1C#N)Oc1cc(F)cc(F)c1NC2=O` [Compound 131], the CC50 at 6 days in data set [1] was above 10 µM. Further, the pIC50 in data set [2] is 6.70 to 7.70. Moreover, the results for the pEC50 in data set [3] (class symbols) and in data set [5] (cells given as a bound) were 5.00 to 6.00 and below 6.00, respectively. The same molecule came in with a CC50 in data set [4] above 1000 nM.
In data set [1], `C[C@H](NC(=O)C(F)(F)F)C(=O)N(C)[C@@H](CC1CCC1)C(=O)N1C[C@@]2(C[C@H]1C#N)Oc1cccnc1NC2=O` [Compound 165] registered a CC50 at 6 days above 10 µM. For the same molecule, the negative logarithm of the IC50 (pIC50) in data set [2] is above 7.70. Also, the negative logarithm of the EC50 (pEC50) in data set [3] (class symbols) and in data set [5] (class symbols) was above 7.00 in each case. Further, the CC50 in data set [4] was above 1000 nM.
As for `CN(C(=O)c1cnc(C(F)(F)F)[nH]1)[C@@H](CC1CC1)C(=O)N1C[C@@]2(C[C@H]1C#N)Oc1cc(F)cc(F)c1NC2=O` [Compound 171], the CC50 at 6 days in data set [1] was above 10 µM. Moreover, in data set [2], the pIC50 is 6.70 to 7.70. The pEC50 in data set [3] (class symbols) was 5.00 to 6.00; in data set [5] (cells given as a bound), below 6.00. The same molecule came in with a CC50 in data set [4] above 1000 nM.
